The results in this text go back to PubChem BioAssay (NCI).

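Cultured in 96-well plates, cells were exposed to test compound for 48 hours across five concentrations. Here, GI50 denotes the concentration required for 50% inhibition of growth. The concentration for full growth arrest is given as TGI.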

The first experiment concerns DLD-1 colon. Briefly: NCI anticancer screen, dose series, 48 h.
The molecule `COC(=O)C1C(=O)N(CCc2c[nH]c3ccccc23)C[C@@H]2CCC(=O)C[C@H]12` (stereo partly drawn) gave a TGI of more than 100 µM.

Molecule `Cc1c(C)c(CC(=O)N2CC2)c(C)c(C)c1CC(=O)N1CC1` yielded a TGI of 56.5 µM.

Regarding `CCCCCCCCCCCCCCCCCCOCC(COCCOCC[N+]1(CCCCCC(=O)[O-])CCCC1)Oc1ncccn1` (stereo not drawn), the TGI came out at 14 µM.

As for `CC(C)(C)NCC(COc1ccc([N+](=O)[O-])cc1)OP(c1ccccc1)c1ccccc1` (stereo not drawn), the TGI is more than 100 µM.

As for `COc1cc(C2c3cc4c(cc3[C@@H](Nc3ccc5c(c3)OCCO5)C3COC(=O)[C@H]23)OCO4)cc(OC)c1O` (stereo partly drawn), the TGI is 5.17 µM.

In turn, `Cn1c(=O)nc2n(-c3ccc(Cl)c(C(F)(F)F)c3)c3ccccc3nc-2c1=O` yielded a TGI of more than 100 µM.

For another experiment, the system named is DMS 114 small cell lung. Briefly: NCI anticancer screen, dose series, 48 h.
`Cc1c2ccncc2c(C)c2c1[nH]c1ccc(O)c(OCC(F)(F)F)c12` came in with a TGI of 10.7 µM.

Molecule `O=C1[C@H]2ON(c3ccccc3)C(c3ccco3)[C@H]2C(=O)N1c1ccc(Cc2ccc(N3C(=O)[C@@H]4ON(c5ccccc5)C(c5ccco5)[C@@H]4C3=O)cc2)cc1` (stereo partly drawn) showed a TGI of more than 100 µM.

For the molecule `Cc1cccc(C)c1N1C(=O)C(=O)C(c2nc3ccccc3s2)/C(=N/NC(=O)NN)C1=O` (stereo not drawn), the TGI was more than 100 µM.

Turning to `CCCCCCC(C)CCCCCCCCCCC(=O)O` (stereo not drawn), the TGI was more than 100 µM.

For `COc1ccc2[nH]c(-c3ccc(O)cc3)cc(=O)c2c1`, the TGI was found to be 1.49 µM.

For the molecule `COc1ccccc1NC(=O)/C(=C/c1ccccc1)C(C)=O`, the TGI is more than 100 µM.

Take `O=C(CC1(O)C(=O)Nc2c(Cl)ccc(Cl)c21)c1ccc(Cl)cc1Cl` (stereo not drawn): the TGI turned out to be 37.4 µM.

For `CC1=NN(C(=O)c2ccncc2)C(=O)C1N=Nc1ccc(F)cc1` (stereo not drawn), the TGI is more than 100 µM.

Molecule `CCOC(OC1=C(C#N)CCCC1)C(CC)[Se]c1ccccc1` (stereo not drawn) yielded a TGI of 15.4 µM.

For `C=C1C2Oc3ccccc3C1N(c1ccccc1)O2` (stereo not drawn), the TGI is 79 µM.

In turn, `C=C1C(=O)C23C(O)C1CC[C@H]2C12CCCC(C)(COC(C)=O)[C@H]1[C@H](O)[C@]3(O)OC2` (stereo partly drawn) gave a TGI of 4.35 µM.

The molecule `O=S1CSSC1` came in with a TGI of 19.1 µM.

With `C=CCNC(=O)N(CCC)CCCC(NC(C)=O)C(=O)NCc1ccccc1` (stereo not drawn), the TGI is more than 100 µM.

`CCOC(=O)C1(Cc2ccc3ccccc3c2)CCCCC(=O)N1` (stereo not drawn) returned a TGI of 72.9 µM.

Regarding `Cc1ccccc1/C=C/C(=O)c1ccccc1`, the TGI was found to be 48 µM.

For the molecule `COC(=O)C1C(=O)N(CCc2c[nH]c3ccccc23)C[C@@H]2CCC(=O)C[C@H]12` (stereo partly drawn), the TGI is more than 100 µM.

The molecule `C[C@]12C/C(=C/O)C(=O)C(O)=C1CC[C@@H]1C2CC[C@@]2(C)C1CC[C@@H]2O` (stereo partly drawn) yielded a TGI of 37.5 µM.

In turn, `Cc1c(C)c(CC(=O)N2CC2)c(C)c(C)c1CC(=O)N1CC1` had a TGI of 24.5 µM.

As for `CCCCCCCCCCCCCCCCCCOCC(COCCOCC[N+]1(CCCCCC(=O)[O-])CCCC1)Oc1ncccn1` (stereo not drawn), the TGI was 7.1 µM.

In the case of `CC(C)(C)NCC(COc1ccc([N+](=O)[O-])cc1)OP(c1ccccc1)c1ccccc1` (stereo not drawn), the TGI stood at 83.9 µM.

As to `COc1cc(C2c3cc4c(cc3[C@@H](Nc3ccc5c(c3)OCCO5)C3COC(=O)[C@H]23)OCO4)cc(OC)c1O` (stereo partly drawn), the TGI came out at 3.42 µM.

Consider `Cn1c(=O)nc2n(-c3ccc(Cl)c(C(F)(F)F)c3)c3ccccc3nc-2c1=O`, for which the TGI was 40.6 µM.

The test system of the next experiment is XF 498 CNS. Briefly: NCI anticancer screen, dose series, 48 h.
On to `Cc1c2ccncc2c(C)c2c1[nH]c1ccc(O)c(OCC(F)(F)F)c12`, for which the TGI stood at 22.9 µM.

Regarding `CC(C)(C)OC(=O)NC1CCCC1=O` (stereo not drawn), the TGI was more than 100 µM.

In the case of `O=C1[C@H]2ON(c3ccccc3)C(c3ccco3)[C@H]2C(=O)N1c1ccc(Cc2ccc(N3C(=O)[C@@H]4ON(c5ccccc5)C(c5ccco5)[C@@H]4C3=O)cc2)cc1` (stereo partly drawn), the TGI is more than 100 µM.

Consider `Cc1cccc(C)c1N1C(=O)C(=O)C(c2nc3ccccc3s2)/C(=N/NC(=O)NN)C1=O` (stereo not drawn), for which the TGI was more than 100 µM.

Take `CCCCCCC(C)CCCCCCCCCCC(=O)O` (stereo not drawn): the TGI is more than 100 µM.

`COc1ccc2[nH]c(-c3ccc(O)cc3)cc(=O)c2c1` gave a TGI of 13.7 µM.

For `CC(C)[O-].CC(C)[O-].O=c1cccccc1[O-].O=c1cccccc1[O-].[Ti+4]`, the GI50 was 33.8 µM and the TGI amounted to 97.3 µM.

Regarding `COc1cc(CNc2nc3ccc(C(F)(F)F)cc3nc2-c2ccccc2)cc(OC)c1OC`, the TGI was more than 100 µM.

For the molecule `COc1ccccc1NC(=O)/C(=C/c1ccccc1)C(C)=O`, the TGI turned out to be 89.5 µM.

Molecule `O=C(CC1(O)C(=O)Nc2c(Cl)ccc(Cl)c21)c1ccc(Cl)cc1Cl` (stereo not drawn) gave a TGI of 33.9 µM.

The molecule `CC1=NN(C(=O)c2ccncc2)C(=O)C1N=Nc1ccc(F)cc1` (stereo not drawn) displayed a TGI of more than 100 µM.

`CCOC(OC1=C(C#N)CCCC1)C(CC)[Se]c1ccccc1` (stereo not drawn) gave a TGI of 46.5 µM.

Consider `C=C1C2Oc3ccccc3C1N(c1ccccc1)O2` (stereo not drawn), for which the TGI is 43.5 µM.

Molecule `C=C1C(=O)C23C(O)C1CC[C@H]2C12CCCC(C)(COC(C)=O)[C@H]1[C@H](O)[C@]3(O)OC2` (stereo partly drawn) returned a TGI of 2.71 µM.

For `O=S1CSSC1`, the TGI was found to be 50.1 µM.

In turn, `C=CCNC(=O)N(CCC)CCCC(NC(C)=O)C(=O)NCc1ccccc1` (stereo not drawn) came in with a TGI of more than 100 µM.

`CCOC(=O)C1(Cc2ccc3ccccc3c2)CCCCC(=O)N1` (stereo not drawn) registered a TGI of more than 100 µM.

For `Cc1ccccc1/C=C/C(=O)c1ccccc1`, the TGI was found to be 30.8 µM.

The molecule `COC(=O)C1C(=O)N(CCc2c[nH]c3ccccc23)C[C@@H]2CCC(=O)C[C@H]12` (stereo partly drawn) had a TGI of more than 100 µM.

Turning to `C[C@]12C/C(=C/O)C(=O)C(O)=C1CC[C@@H]1C2CC[C@@]2(C)C1CC[C@@H]2O` (stereo partly drawn), the TGI amounted to 33 µM.

The molecule `CCCCCCCCCCCCCCCCCCOCC(COCCOCC[N+]1(CCCCCC(=O)[O-])CCCC1)Oc1ncccn1` (stereo not drawn) yielded a TGI of 9.46 µM.

Regarding `CC(C)(C)NCC(COc1ccc([N+](=O)[O-])cc1)OP(c1ccccc1)c1ccccc1` (stereo not drawn), the TGI stood at 67.3 µM.

The molecule `COc1cc(C2c3cc4c(cc3[C@@H](Nc3ccc5c(c3)OCCO5)C3COC(=O)[C@H]23)OCO4)cc(OC)c1O` (stereo partly drawn) displayed a TGI of 5.89 µM.

For `Cn1c(=O)nc2n(-c3ccc(Cl)c(C(F)(F)F)c3)c3ccccc3nc-2c1=O`, the TGI was more than 78.1 µM.
